Laboratory results published in patent US12611406B2, “Oxopiperazine derivatives for the treatment of cancer” (Inthera Bioscience AG, priority 2020, dated 2026).

Legend:
NCI-H69 = NCI-H69 small cell lung cancer CDX mouse model; conditions: for Tumor growth inhibition: p <0.001
Protocol: The 30 mg/kg group was given initially QW at 30 mg/kg and from day 31 onwards was given once weekly at 60 mg/kg, as indicated.
In Table 2, tumor growth inhibition (TGI) calculations are based on additional growth of tumors, i.e., tumor sizes on the day of TGI estimation minus tumor sizes at the start of treatment are used for calculations. Values larger than 100% indicate tumor regression. […] The total daily dose of 60 mg/kg was administered as *single dose or given as **30 mg/kg BID (twice daily).

SNU-16 = SNU-16 gastric cancer CDX mouse model; assay type: in vivo
Text: Left panel: Tumor growth curves. Right panel: Body weight development. […] QW: once weekly treatment. p.o.: per oral. QD: once daily treatment. BID: twice daily treatment. QW: once weekly treatment.
(§1) Values larger than 100% indicate tumor regression.

AR = assay: AR-driven gene expression in LNCaP cells stimulated with DHT; assay type: cell-based; conditions: PSA (KLK3), TMPRSS2, SLC45A3; DHT induction; 30, 300, 3000 nM
Protocol: Compound 1 concentrations from left to right: 30, 300, 3000 nM. Basal level indicates expression level in cells with no DHT treatment.
In SCLC, the expression of p300 and CBP is associated with poor prognosis (see Gao et al, Int J Clin Exp Pathol. 2014 Jan. 15; 7(2):760-7) with high p300 and CBP expressions being independent prognostic markers of poor overall survival (OS) for resected SCLC patients.

[1] = system: human enzymes, transporters, kinases, receptors and ion channels; assay: In vitro safety pharmacology panels
Protocol: Compound 1 was tested using in vitro safety pharmacology panels encompassing human enzymes, transporters, kinases, receptors and ion channels thought to be potential contributors to adverse drug reactions.

LNCaP cells = assay: Cell cycle distribution with siRNA-mediated knock-down of Rb and p53; assay type: cell-based; conditions: LNCaP treated with Rb/p53 siRNA, 24 h
Protocol: (§2) Top panel: Cell cycle distribution in LNCap cells treated with siRNA (2 bars on the right) in comparison to control LNCaP cells without siRNA treatment (2 bars in the middle), in the absence (−) or presence (+) of Compound 1 for 24 h at the indicated concentration. For comparison, DU-145 cells harboring a combined Rb1 and p53 loss-of-function are included (2 bars on the left). Lower panel: Western blot analysis according to the same experimental conditions as given for the top panel.
In in vitro studies using LNCaP PC cells, harboring wild-type Rb and p53 genes, the effect of Compound 1 on the cell cycle was investigated in the absence and presence of siRNA-mediated knock-down of Rb and p53 gene expression. […] This effect is hypothesized to be due to Compound 1-mediated perturbation of the interaction between p300 and DDR factors and subsequent impact on the late cell cycle checkpoints and the DDR leading to cell death.

[2] = Single dose oral and intravenous PK in CD-1 mice (mesylate salt), blood; assay type: in vivo; set-up: AUC(0-t) / AUC(0-inf): unit not given here; conditions: male, CD-1, mouse, whole blood
Protocol: These studies analyzed the PK profile of Compound 1 following a single oral gavage or single intravenous dose to CD-1 mice.
Compound 1 (mesylate salt) was administered to four groups of male mice (n=4/group) as a single oral (po) gavage administration at dose levels of 5, 10, 20, and 50 mg/kg/adm or as single intravenous (IV) dose at 5 and 50 mg/kg/adm. The vehicle was 1% methylcellulose with 0.1% Tween-80 in study AMP800 and 5% dextrose in water in study AMP799. Blood samples were collected at pre-dose, 10 minutes, 40 minutes, 2, 4, and 7 hours after administration for analysis of Compound 1 concentrations in blood by liquid chromatography—tandem mass spectroscopy (LC-MS/MS) and subsequent calculation of PK parameters.

22Rv1 = 22Rv1 prostate cancer CDX mouse model; assay type: in vivo
Text: Left panel: Tumor growth curves. Right panel: Body weight development. The respective dosing regimen is indicated as bars below the x-axis. QD: once daily treatment; po: per os.
Left panel: Tumor growth curves. Right panel: Body weight development. The dosing regimen is indicated as dots below the curves. BID: twice daily treatment. QW: once weekly treatment. p.o.: per oral.
NCI-H660 cells represent a rather far advanced PC type in which not only the tumor suppressor functions of Rb1 and p53 have been lost (see Table 1). Furthermore, the cells already have developed a small cell phenotype characteristic of advanced treatment-resistant PC. In contrast, 22Rv1 tumor cells that are wild-type for Rb1 and p53 pathways were less sensitive to Compound 1 treatment when a once weekly dosing scheme was used.
as §1

p300 = assay: Western blot of p53 acetylated by p300 on K382 in LNCaP cells; assay type: cell-based
Protocol: as §2

CC(C)C[C@@H]1NCCN([C@@H](CC(C)C)C(=O)N2CCC3(C[C@@H]2C)OCC(CN2CCCC2)CO3)C1=O (stereo partly drawn) [Compound 1, (S)-3-isobutyl-1-((S)-4-methyl-1-((S)-8-methyl-3-(pyrrolidin-1-ylmethyl)-1,5-dioxa-9-azaspiro[5.5]undecan-9-yl)-1-oxopentan-2-yl)piperazin-2-one]
body weight (NCI-H69; 3 mg/kg oral daily continuous): slight body weight loss | tumor response (NCI-H69; 3 mg/kg oral daily continuous): regressions of tumors | tolerability (NCI-H69; 3 mg/kg oral every other week): well tolerated | anti-tumor activity, every other week vs daily (NCI-H69; 3 mg/kg oral, every other week compared to same dose daily): almost the same anti-tumor growth activity | anti-tumor activity, once weekly vs daily (NCI-H69; 30 mg/kg once every seven days, 60 mg/kg weeks 4 to 7, compared to 3 mg/kg daily): same anti-tumor growth activity | body weight (NCI-H69; intermittent (once weekly) dosing): did not cause significant body weight decreases | Tumor growth inhibition (NCI-H69; once weekly 15 mg/kg/day, 7 weeks): 58% (<0.001)/ | Tumor growth inhibition (NCI-H69; once weekly 30 mg/kg/day, 3 weeks): 76% (<0.001)/ | Tumor growth inhibition (NCI-H69; once weekly 60 mg/kg/day, 4 weeks, after 3 weeks at 30 mg/kg): 103% (<0.001)/ | Tumor growth inhibition (SNU-16; once weekly 60 mg/kg/day as 30 mg/kg BID, 6 weeks, p <0.001): 103% (<0.001)/**6 weeks | anti-tumor efficacy, weekly vs daily (SNU-16; weekly 30 mg/kg BID compared to 3 mg/kg daily): comparable anti-tumor efficacy | AR target gene expression (AR): effectively downregulates target genes | responses in safety pharmacology panels [1]: No significant responses were detected | cell cycle response (LNCaP cells): increase of cells in the S-phase | AUC(0-inf) ([2]; intravenous 5 mg/kg): 1.11 | AUC(0-t) ([2]; intravenous 5 mg/kg): 1.03 | Tmax ([2]; intravenous 5 mg/kg): 0.17 h | half-life ([2]; intravenous 5 mg/kg): 2.3 h | AUC(0-inf) ([2]; intravenous 50 mg/kg): 13 | AUC(0-t) ([2]; intravenous 50 mg/kg): 12.2 | Tmax ([2]; intravenous 50 mg/kg): 0.17 h | half-life ([2]; intravenous 50 mg/kg): 1.6 h | AUC(0-inf) ([2]; oral 5 mg/kg): 0.246 | AUC(0-t) ([2]; oral 5 mg/kg): 0.179 | Tmax ([2]; oral 5 mg/kg): 0.17 h | half-life ([2]; oral 5 mg/kg): 4 h | AUC(0-inf) ([2]; oral 10 mg/kg): 0.471 | AUC(0-t) ([2]; oral 10 mg/kg): 0.31 | Tmax ([2]; oral 10 mg/kg): 0.17 h | half-life ([2]; oral 10 mg/kg): 5.6 h | AUC(0-inf) ([2]; oral 20 mg/kg): 2.49 | AUC(0-t) ([2]; oral 20 mg/kg): 1.97 | Tmax ([2]; oral 20 mg/kg): 0.17 h | half-life ([2]; oral 20 mg/kg): 3.2 h | AUC(0-inf) ([2]; oral 50 mg/kg): 3.38 | AUC(0-t) ([2]; oral 50 mg/kg): 2.88 | Tmax ([2]; oral 50 mg/kg): 0.67 h | half-life ([2]; oral 50 mg/kg): 2.6 h | tumor response (22Rv1; 3 mg/kg oral): cytostatic growth inhibition | anti-tumor activity, every other week vs daily (22Rv1; 3 mg/kg oral, 7d on/7d off compared to same dose daily): almost the same anti-tumor growth activity | Tumor growth inhibition (22Rv1; 30 mg/kg BID once weekly (60 mg/kg weekly)): approx. 50% | Tumor growth inhibition (22Rv1; once weekly 60 mg/kg/day as 30 mg/kg BID, 5 weeks, p 0.001): 47% (0.001)/**5 weeks | amount of p53 acetylated by p300 on K382 (p300; control LNCaP cells): increased | HAT/KAT activity of p300 (p300; inferred from p53 K382 acetylation): not inhibited
